Measurements published in ChEMBL document CHEMBL3507680, “University of Dundee, Gates Library screen for HepG2 cell viability”.

Assay: Human HepG2 cell viability assay in 384 well format
Format: toxicity, cell-based
Set-up: dose 125 nL, time 70.5 hour; concentration not given beside the values
Conditions: HepG2 cells, read-out: Inhibition

Row | SMILES | cytotoxicity at 70.5 h
1 | Cc1ccc(-c2noc(C3CCN3C(=O)c3ccc(=O)[nH]n3)n2)s1 (stereo not drawn) | -4.22%
2 | COc1ccc(-n2ncc(C(=O)NCC3COC(C)(C)O3)c2N)cc1 (stereo not drawn) | -5.98%
3 | COc1ccc(C2C3=C(COC3=O)Nc3[nH]nc(C)c32)cc1OC (stereo not drawn) | -22.8%
4 | Cc1ccc(NC(=O)Nc2c(O)oc3ccccc3c2=O)cc1 | 4.11%
5 | O=C(c1ccoc1)N1CCN(Cc2ccccc2F)CC1 | -3.32%
6 | CCN(Cc1noc(CC(C)C)n1)Cc1cc2ccc(F)cc2[nH]c1=O | 0.157%
7 | CNC(=O)c1cn[nH]c1C1CCN(Cc2ccccc2OC)C1 (stereo not drawn) | -8.12%
8 | Cc1cccc(CN2C[C@@H]3COC[C@]3(CNC(=O)c3ccno3)C2)n1 | 7.45%
9 | CCN(CCN1CCCCCC1)C(=O)COc1cccnc1 | 16%
10 | CCSc1cc(C(=O)N(Cc2cnn(C)c2)C(C)C)ccn1 | -11.4%
11 | CCN1CCN(C2CCN(Cc3nc(C)c(C)o3)CC2)C1=O | -3.68%
12 | COc1cccc(C(=O)NS(=O)(=O)c2cccc(C#N)c2)c1OC | -13.8%
13 | FC(F)(F)c1ccc(-c2c[nH]c([C@@H]3COCCN3)n2)cc1 | -16%
14 | COc1cccc(C2=CCN(CCN3CCOC3=O)CC2)c1 | 11.1%
15 | CN1C(=O)C[C@@H]2[C@@H]1CCN2C(=O)c1ccc[nH]1 | -2.89%
16 | Cc1cc(C)n(CC2CCCCN2CC(=O)Nc2nncs2)n1 (stereo not drawn) | -7.4%
17 | Cc1cc(CNCC2CNc3ccnn3C2)no1 (stereo not drawn) | 19.3%
18 | O=C1CCCN1CC1CN(C(=O)N2CCOCC2)Cc2nccn2C1 (stereo not drawn) | -2.04%
19 | CCOCCCC(=O)NCc1ccnc(N2CCN(C)CC2)c1 | 4.8%
20 | CN(C)CCn1ccnc1C1CCCN(c2nccc3ccccc23)C1 (stereo not drawn) | 1.12%
21 | O=S(=O)(C1CC1)N1CCC2(CCCN(c3ncccn3)C2)C1 (stereo not drawn) | 18%
22 | Cc1oc(-c2ccoc2)nc1CN1CCCCC1CCc1ccccc1 (stereo not drawn) | -2.03%
23 | CC(C)N1CCCC(C(=O)NC(C)(C)c2nnc(N)s2)C1 (stereo not drawn) | -12.2%

Row | SMILES | cytotoxicity at 70.5 h
24 | CCNC(=O)[C@@H]1C[C@H](N)CN1Cc1ccc(-c2ccccc2C#N)o1 | 9.56%
25 | Cc1cc(C(F)(F)F)nc(CNC(=O)C2CCCCCN2C)n1 (stereo not drawn) | 2.11%
26 | CC(C)c1cc(C(=O)N[C@@H]2CC[C@@H](Oc3ccccc3)[C@@H]2O)on1 | -3.21%
27 | CCn1c(C)nc2cc(NC(=O)CC3CCCCO3)ccc21 (stereo not drawn) | -7.28%
28 | CN(C(=O)C1CCOCC1)[C@@H]1CCC[C@@H](N2CCCC2)[C@@H]1O | -3.82%
29 | CCO[C@@H]1CC[C@H]2[C@H]1OCCN2CCOCc1ccccc1 | -17.9%
30 | CC(Oc1ccc(F)cc1F)C(=O)N1CCC2(CC1)CC(=O)N(C)C2 (stereo not drawn) | 27.3%
31 | CCc1nc(CCNC(=O)Nc2cc(C(N)=O)sc2C)cs1 | 17%
32 | CN(C(=O)CN1CCCC1Cc1ccccc1)c1ccccc1 (stereo not drawn) | -7.08%
33 | C[C@@H]1CN(CCC(=O)NCc2ccccc2Cl)CC[C@@]1(O)C1CCC1 | -0.451%
34 | O=C1NCc2ccccc2CC12CCN(Cc1ccccc1Cl)CC2 | -3.39%
35 | CC(C)(C)c1ccn(C2(C(=O)O)CCN(c3ccnc(N)n3)CC2)n1 | -3.43%
36 | O=C1[C@H]2CN(S(=O)(=O)c3cccs3)C[C@H]2CN1CC1CC1 | -2.27%
37 | O=C(NCc1nnc2n1CCCCC2)N(Cc1ccncc1)C1CC1 | -4.16%
38 | O=S(=O)(C1CC1)N1CCO[C@H]2[C@@H](Oc3ncccc3F)CC[C@@H]21 | -8.02%
39 | Cn1cnc(S(=O)(=O)N2CCCc3cc(F)cc(F)c32)c1Cl | 10.5%
40 | CCc1cnc(NCC(CC)N2CCOCC2)nc1 (stereo not drawn) | -6.68%
41 | O=C(c1ccoc1)N1CCCC2(CCC(=O)N2Cc2ccncc2)C1 (stereo not drawn) | -1.87%
42 | O=C(c1ccc2c(c1)CCCC2)N1CCN(c2cnccn2)CC1 | -11.8%
43 | CCc1c(C)nc2ccccc2c1N1CCC(O)CC1 | -3.88%
44 | FC(F)(F)COCCN1CCCC(c2noc(C3CC3)n2)C1 (stereo not drawn) | -10.4%
45 | CCOc1cc(C)nc(N2CCN(C(=O)c3csnn3)CC2)n1 | -12.5%
46 | Cc1cccc2cc(CNCCCN3CCOCC3)c(=O)[nH]c12 | 33.6%

Row | SMILES | cytotoxicity at 70.5 h
47 | Cc1cccc2c1nc(COCC(=O)O)n2-c1ccc(N)nc1 | 9.09%
48 | COC(=O)c1cccc(S(=O)(=O)NC(=O)CC2CCCC2)c1 | 22.5%
49 | CC(C)c1cc(N(C)Cc2cc(C3CC3)on2)n2nccc2n1 | -8.41%
50 | CC(C)CN1CCN(C)C(CCO)C1 (stereo not drawn) | -8.39%
51 | CN1CC[C@]2(CN(CC3CC3)C[C@H]2c2ccccc2)C1=O | 23.4%
52 | Cc1nc(CN2CCC(CNC(=O)NCCC3CCC3)CC2)oc1C | 0.076%
53 | c1ccc(Cc2noc(CN3CCCC3C3CCCCC3)n2)cc1 (stereo not drawn) | 16.5%
54 | CO[C@H]1CCN(c2nnc(C)s2)C[C@@H]1Cc1ccccc1 | -4.37%
55 | CNCCN1C(=O)CC[C@H]2CN(c3ncc(F)cn3)CC[C@H]21 | 20%
56 | CCn1cc(CN2CCCC(COc3ccc(F)cc3)C2)cn1 (stereo not drawn) | 12.1%
57 | CN(C)c1ncc(NC(=O)c2cccc(Nc3cnn(C)c3)c2)cn1 | 2.52%
58 | CN1CC(=O)N(c2ccsc2)CC12CCN(Cc1nccn1C)C2 (stereo not drawn) | -0.505%
59 | Cc1ccccc1C(N)c1ccncc1 (stereo not drawn) | -3.67%
60 | CN(Cc1ccc([S+](C)[O-])cc1)c1cncc(Cl)n1 (stereo not drawn) | -15.4%
61 | COc1cccc(C(=O)N2CCOCC2CN(C)C)c1OC (stereo not drawn) | -2.02%
62 | Cn1cnc2cc(NC(=O)c3n[nH]c4c3CCC4)ccc21 | -3.46%
63 | Cc1cccc(C(=O)N2Cc3ccccc3C3(CCN(C)CC3)C2)n1 | 7.65%
64 | CCn1cc(NC(=O)NC(CO)Cc2c[nH]c3ccccc23)cn1 (stereo not drawn) | -4.69%
65 | O=C(Cc1ccc(O)c(F)c1)N1CCC2(CCNCC2)CC1 | -1.13%
66 | CC1CN(C)CCN1Cc1cccc(C(=O)NCc2ccco2)c1 (stereo not drawn) | 27.4%
67 | CC1=NOC2(CCN(Cc3c[nH]c4ccccc34)CC2)C1 | -9.21%
68 | CN(Cc1cscn1)Cc1cc2c(cc1Br)OCO2 | -4.04%
69 | Cn1cc(C2CCCN2C(=O)c2ccc(NC3CC3)nc2)cn1 (stereo not drawn) | 0.0682%

Row | SMILES | cytotoxicity at 70.5 h
70 | O=C(CN(C1=NCCCC1)c1ccccc1)c1ccccc1 | 25.2%
71 | COC(=O)CCSc1nncn1-c1ccc(OC)nc1 | 4.09%
72 | Nc1ncc(-c2ccc(NC(=O)[C@@H]3CCCCN3)cc2)cn1 | 2.01%
73 | CN(CCNc1ncc2c(n1)CCN2c1ccccc1)S(C)(=O)=O | -9.7%
74 | CN1CCOC(C(=O)Nc2nc(-c3ccccc3F)n[nH]2)C1 (stereo not drawn) | -6.97%
75 | CN(CCC(=O)N1CCc2sccc2C1)Cc1ccc2c(c1)OCCO2 | -2.14%
76 | O=C(NCc1ccco1)c1cccc(CN2CCCC2CO)c1 (stereo not drawn) | -8.88%
77 | O=C(CCC(=O)N1CCCC1c1ccsc1)N1CCOCC1 (stereo not drawn) | -5.51%
78 | O=C(NC[C@H]1OC[C@@H](NC2COC2)[C@@H]1O)C1CCCC1 | -8.61%
79 | CN(C)CCN1CCCC12CCCN(Cc1ccco1)C2 (stereo not drawn) | 7.41%
80 | Cc1ncc(C(=O)N2CCCC2c2c(C)nn(C)c2C)s1 (stereo not drawn) | -2.56%
81 | COCCNC(=O)CSCc1nc(O)c2cc(C(C)C)sc2n1 | -8.44%
82 | COc1cccc(NC(=O)CCCc2nc(C(C)C)no2)c1 | 5.69%
83 | O=C(NCC1CC1)C1=NOC2(CCN(S(=O)(=O)c3cccs3)C2)C1 (stereo not drawn) | -10%
84 | O=S(=O)(NC1CCCCC12OCCO2)c1ccc2c(c1)OCCO2 (stereo not drawn) | -7.16%
85 | CCCN(CC(=O)OC)S(=O)(=O)c1cnc2c(c1)c(C)nn2C | -7.82%
86 | Cc1cc(C(=O)NC2CCCc3c2cnn3-c2cccc(C)c2C)[nH]n1 (stereo not drawn) | -3.11%
87 | Cc1sc(NC(=O)CN(C)S(C)(=O)=O)c(C#N)c1C | 10%
88 | COCC1(Nc2nc(C)nc3c2cnn3C)CCCC1 | 3.28%
89 | O=C(Cc1cn2ccsc2n1)N1CCCC(n2cccn2)C1 (stereo not drawn) | -3.32%
90 | O=S(=O)(NCC(c1ccsc1)N1CCCCCC1)c1cccs1 (stereo not drawn) | -3.34%
91 | O=C(NCc1c(F)cccc1Cl)c1cc(CN2CCCC(O)C2)on1 (stereo not drawn) | -13.8%
92 | O=C(CCn1ccnc1)N1CC[C@H](Oc2cccc(F)c2)[C@@H](O)CC1 | 28.5%

Row | SMILES | cytotoxicity at 70.5 h
93 | CN1C(=O)[C@H]2CC[C@@H]1CN(c1ncnc3ccsc13)C2 | 11.8%
94 | NC(=O)CN1CCOCC(Cc2cccc(F)c2)C1 (stereo not drawn) | -12.7%
95 | CNC(=O)[C@H]1C[C@@H]2CN(C(=O)NC(C)C)C[C@H]1O2 | 23%
96 | CCCc1nc(C(C)(C)NC(=O)C2CC(=O)N(C3CC3)C2)no1 (stereo not drawn) | -6.42%
97 | OCc1ccc(CN2CCC(n3cc(C4CCCCC4)nn3)CC2)o1 | -7.14%
98 | COCCN1C[C@H]2CC[C@@H]1CN(Cc1nc3ccccc3n1C)C2 | -6.43%
99 | NC(=O)c1ccc(OCC(=O)N2CCCC2c2ccc[nH]2)cc1 (stereo not drawn) | 42.3%
100 | Cc1occc1C(=O)N1CCC2(CCCN(Cc3nccs3)C2)C1 (stereo not drawn) | 1.62%
101 | Cc1cc(C)c(CNC(=O)NCC(O)c2ccccc2F)c(=O)[nH]1 (stereo not drawn) | -2.12%
102 | Cn1cc(-c2ccnc(NCC3CCN(Cc4ccccc4)C3)n2)cn1 (stereo not drawn) | 11.9%
103 | Cc1nc(C)n(CC2CCCN(CCc3ccncc3)C2)n1 (stereo not drawn) | -2.11%
104 | CC1c2ncc(Cn3cccn3)n2CCN1Cc1ccc(F)cc1 (stereo not drawn) | -2.85%
105 | Cc1cccc(CCNC(=O)CCS(=O)(=O)C2CCCC2)c1 | -5.57%
106 | O=C(NCc1ccccc1)c1nnc2ccc(N3CCOCC3)cc2n1 | 4.86%
107 | Cc1oc(C)c(C(=O)N2CCCN(Cc3cscn3)CC2)c1C | 5.51%
108 | CCOCCNC(=O)c1ccc(OC)cc1I | -6.65%
109 | CNC(=O)C1CCN(c2ncnc3c2CCN(C(=O)C2CC2)C3)C1 (stereo not drawn) | -5.76%
110 | Cn1nnc2c1CCN(Cc1ccco1)C2COCc1ccccc1 (stereo not drawn) | 1.81%
111 | CCOC(=O)C1CCCCN1Cc1c[nH]nc1-c1ccc(F)cc1F (stereo not drawn) | -7.54%
112 | CCC(Nc1nnnn1-c1ccccc1)C(=O)NCc1cccs1 (stereo not drawn) | -8.74%
113 | Cc1noc(C)c1CN1CC[C@H](OCC2CC2)[C@@H](Cc2ccccc2)C1 | 3.46%
